From patent US8476251B2, “Skin care compositions comprising substituted diamines” (Conopco, Inc., priority 2010, dated 2013) come the findings set out here.

The subject of the assay is Melanoderm tissue equivalent model MEL-300 containing melanocytes obtained from dark skin individuals. As to the kind of experiment: Melanoderm tissue equivalent model MEL-300, total melanin content (inhibition of melanogenesis). The following applies: 14 days; for inhibition at 10 µM: Melanocyte, 336 h, 10 μM in maintenance medium, total melanin content vs DMSO vehicle control, read-out: Melanoderm (% Reduction at 10 μM); for melanogenesis inhibition (in words): Melanoderm MEL-300, 10 μM. It counts as cell-based. Here is the method:
Melanoderm tissue equivalent model MEL-300 (MatTek: Ashland, Mass.) containing melanocytes obtained from dark skin individuals were cultured as per supplier instructions. Components were added to the maintenance medium phase (no topical treatments) at a final concentration of 10 μM for 14 days at which time the experiment was terminated and the tissues assessed for melanin content. Medium and treatments were changed three times per week. DMSO was utilized as the vehicle control and all treatments were performed at least in duplicate.
For quantification of total melanin, each Melanoderm was placed into an individual Eppendorf tube (2 mL) into which 250 μL of Solvable™ tissue solubilizer (Packard Bioscience Co., Cat# 6NE9100) was added. Each tube was vortexed and incubated at 60° C. for 18 hours. Each sample was then centrifuged (5-minutes at 13,000 RPMs) to remove any particulates. 100 or 200 μL of supernatant were transferred to a 96 well microtiter plate and the absorbance read at 490 nm. Total melanin content was calculated from a standard curve using synthetic melanin (Sigma Cat# M8631). Data was analyzed for significance using the t-test in Microsoft Excel to generate p-values (p-values less than 0.01 represent 99% confidence, p values of 0.05 represent 95% confidence both of which are statistically significant).

Take `CN(C)CCN(CCc1ccccc1)Cc1ccccc1` [Compound 3c, N-benzyl-N′,N′-dimethyl-N-(2-phenylethyl)ethane-1,2-diamine]: the inhibition at 10 µM worked out at 51.8%. Still for that read-out and setting: next, `CCN(CC)CCN(Cc1ccccc1)Cc1ccccc1` [Compound 5d, N,N-dibenzyl-N′,N′-diethylethane-1,2-diamine]: 45.6%; `Cc1ccc(CN(CCN(C)C)Cc2ccccc2)cc1` [Compound 3g, N-benzyl-N′,N′-dimethyl-N-(4-methylbenzyl)ethane-1,2-diamine]: 53.2%. Same read-out and setting: next, `Cc1cccc(CN(CCN(C)C)Cc2ccccc2)c1` [Compound 3f, N-benzyl-N′,N′-dimethyl-N-(3-methylbenzyl)ethane-1,2-diamine]: 51.6%. Consider `CN(C)CCN(CC1CCCCC1)CC1CCCCC1` [Compound 5a, N,N-bis(cyclohexylmethyl)-N′,N′-dimethylethane-1,2-diamine], for which the inhibition at 10 µM turned out to be 42.5%. `COc1ccc(CN(CCN(C)C)Cc2ccccc2)cc1` [Compound 3h, N-benzyl-N-(4-methoxybenzyl)-N′,N′-dimethylethane-1,2-diamine]: the inhibition at 10 µM was determined as 48.8%. For the compound `CN(C)CCN(Cc1ccccc1)C(=O)c1ccccc1` [Compound 7, N-benzyl-N-[2-(dimethylamino)ethyl]benzamide], the inhibition at 10 µM is 4.4% and the “melanogenesis inhibition (in words)” value was “is not”. In the case of `CN(C)CCN(Cc1ccc(F)cc1)Cc1ccc(F)cc1` [Compound 5c, N,N-bis(4-fluorobenzyl)-N′,N′-dimethylethane-1,2-diamine], the inhibition at 10 µM is 49.3%. Same read-out and setting: next, `CN(C)CCN(Cc1ccccc1)Cc1ccc(F)cc1` [Compound 3i, N-benzyl-N-(4-fluorobenzyl)-N′,N′-dimethylethane-1,2-diamine]: 47.8%; `CN(C)CCN(Cc1ccccc1)Cc1ccc2ccccc2c1` [Compound 3d, N-benzyl-N′,N′-dimethyl-N-(naphthalen-2-ylmethyl)ethane-1,2-diamine]: 56%; `CC(c1ccccc1)N(CCN(C)C)Cc1ccccc1` (stereo not shown) [Compound 11, N-benzyl-N′,N′-dimethyl-N-(1-phenylethyl)ethane-1,2-diamine]: 47.8%. On the same count and under the same terms, next, `Cc1ccccc1CN(CCN(C)C)Cc1ccccc1` [Compound 3e, N-benzyl-N′,N′-dimethyl-N-(2-methylbenzyl)ethane-1,2-diamine]: 46.6%. Consider `CN(C)CCCN(Cc1ccccc1)Cc1ccccc1` [Compound 5f, N,N-dibenzyl-N′,N′-dimethylpropane-1,3-diamine], for which the inhibition at 10 µM stood at 50%.

For `c1ccc(CN(CCN2CCCC2)Cc2ccccc2)cc1` [Compound 5e, N,N-dibenzyl-2-(pyrrolidin-1-yl)ethanamine], the inhibition at 10 µM is 40.6%. On the same count and under the same terms, next, `COc1ccc(CN(CCN(C)C)Cc2ccc(OC)cc2)cc1` [Compound 5b, N,N-bis(4-methoxybenzyl)-N′,N′-dimethylethane-1,2-diamine]: 48.7%.

With `CN(C)CCN(Cc1ccccc1)CC1CCCCC1` [Compound 3a, N-benzyl-N-(cyclohexylmethyl)-N′,N′-dimethylethane-1,2-diamine], the inhibition at 10 µM came to 51.3% and the “melanogenesis inhibition (in words)” value is “effective at melanogenesis inhibition”.

For the compound `CN(C)CCN(Cc1ccccc1)Cc1ccccc1` [Compound 3b, N,N-dibenzyl-N′,N′-dimethylethane-1,2-diamine], the inhibition at 10 µM stood at 39.5% and the “melanogenesis inhibition (in words)” value is listed as “effective at melanogenesis inhibition”. In the case of `CCN(CCN(C)C)Cc1ccccc1` [Compound 3j, N-benzyl-N-ethyl-N′,N′-dimethylethane-1,2-diamine], the inhibition at 10 µM was -0.1% and the “melanogenesis inhibition (in words)” value was “is not”.
